The source of these data is patent publication US9005579B2 (priority 2010, dated 2015).

In test [1] the target is sortase (Staphylococcus aureus, UniProt Q2FV99). The following applies: in vitro and in vivo; react with Cys184; cited from earlier work.
Test [2] relates to Protein A negative Staphylococcus aureus derived from strain 8325-4. The test can be described thus: Growth of S. aureus with sub-MIC antibiotic with or without mouse anti-sortase monoclonal antibody (OD600, 12 h). Type of test: cell-based. The following applies: sub-MIC antibiotic + tissue culture medium, no Ab. The text has this: In a separate set of experiments, we assessed the effect of anti-sortase antibodies, in the presence and absence of antibiotic, on the growth of the staphylococci. Monoclonal supernatants were used for these experiments and tissue culture media used as controls. […] Exemplary growth curve results with monoclonal antibody 7C2 at 1:10 dilution are depicted in FIG. 5. The growth results are tabulated in TABLE 3 below based on final OD readings of multiple growth experiments. In each instance, significant growth inhibition is observed with a combination of sub-MIC antibiotics and anti-sortase antibody.
Protein A negative Staphylococcus aureus derived from strain 8325-4 was grown to OD600 0.5 in Brain-Heart Infusion medium at 37° C. (Patel A H et al (1987) Infect Immun 55(12):3103-3110). When applicable, antibiotics were added to the media at sub-MIC doses.
Mouse anti-sortase monoclonals were added to each cell-antibiotic culture at a dilution of either 1:10 or 1:100. OD600 values were measured every 5 mins for 12 hours in a 96-well spectrophotometer.

Test [3] has as its system Staphylococci (protein A negative S. aureus strain 8325-4). The test can be described thus: Ampicillin and penicillin MIC (serial 2-fold dilutions, microtiter plate). Type of test: cell-based, Staphylococcus aureus. Particulars: for highest dilution of antibiotic showing normal growth (sub-MIC used in experiments): 12 h, BHI media; for growth of staphylococci in the presence of sub-MIC of antibiotic: no antibody. The protocol:
The MIC dose of two cell wall affecting antibiotics, ampicillin and penicillin, was determined for the protein A negative S. aureus strain 8325-4.
Serial 2-fold dilutions of penicillin and ampicillin were prepared in a microtiter plate. Overnight culture of Staphylococci were diluted 1:100 in BHI media and 100 ul was added to each well and the plate incubated for 12 h. Wells without antibiotic served as controls. The highest dilution of antibiotic showing normal growth was used for further experiments. Ampicillin at 0.1 ug/ml and Penicillin at 0.02 ug/ml were used in these experiments.

The test system of test [4] is E. coli O111:B4. Particulars: overnight incubation, inhibitory concentrations; cited from earlier work.
The conditions of test [5]: D-Ala-D-Ala termini replaced with D-Ala-D-Lac in VRE; cited from earlier work.

sortase, sequence (Q2FV99 whole entry): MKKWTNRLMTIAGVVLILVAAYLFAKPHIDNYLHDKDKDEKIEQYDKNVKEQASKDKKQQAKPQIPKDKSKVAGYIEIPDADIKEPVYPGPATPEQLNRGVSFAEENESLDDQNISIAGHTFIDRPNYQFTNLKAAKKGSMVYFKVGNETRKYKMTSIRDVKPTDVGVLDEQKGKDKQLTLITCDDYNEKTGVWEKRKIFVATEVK

Regarding `CS(=O)(=O)SCCS(=O)(=O)O` [(2-sulfonatoethyl)methane-thiosulfonate], the sortase inhibition result in test [1] was “inhibit sortase in vitro and in vivo”.

As to `CC1(C)S[C@@H]2[C@H](NC(=O)[C@H](N)c3ccccc3)C(=O)N2[C@H]1C(=O)O` [AMP, Ampicillin], in test [2] (control of Ab 1:10), the “Average OD” value is on record as 0.3308, the “Final OD Reading 1” value came out at 0.2975 and the “Final OD Reading 2” value amounted to 0.3641. Besides, in test [2] (control of Ab 1:100), the “Average OD” value is recorded as 0.4421, the “Final OD Reading 1” value turned out to be 0.4216 and the “Final OD Reading 2” value came to 0.4627. Besides, in test [3], the “highest dilution of antibiotic showing normal growth (sub-MIC used in experiments)” value was determined as 0.1 µg/mL and the “growth of staphylococci in the presence of sub-MIC of antibiotic” value is given as “grow similar to control bacteria without antibiotic”.

For `C[N+](C)(C)CCSS(C)(=O)=O` [MTSET], the sortase inhibition entry in test [1] was “inhibit sortase in vitro and in vivo”.

On to `CC(C)(O/N=C(\C(=O)N[C@@H]1C(=O)N2C(C(=O)[O-])=C(C[n+]3ccccc3)CS[C@H]12)c1csc(N)n1)C(=O)O` [caftazidime], for which the “HA-1A binding after exposure to the antibiotic” value in test [4] is reported as “dose-dependent enhancement of HA-1A binding”.

As to `CN[C@H](CC(C)C)C(=O)N[C@H]1C(=O)N[C@@H](CC(N)=O)C(=O)N[C@H]2C(=O)N[C@H]3C(=O)N[C@H](C(=O)N[C@H](C(=O)O)c4cc(O)cc(O)c4-c4cc3ccc4O)[C@H](O)c3ccc(c(Cl)c3)Oc3cc2cc(c3O[C@@H]2O[C@H](CO)[C@@H](O)[C@H](O)[C@H]2O[C@H]2C[C@](C)(N)[C@H](O)[C@H](C)O2)Oc2ccc(cc2Cl)[C@H]1O` [vancomycin], the “decrease in vancomycin affinity” value in test [5] was 1000 fold.

In the case of Penicillin [PCN], in test [2] (control of Ab 1:10), the “Average OD” value worked out at 0.2446, the “Final OD Reading 1” value is given as 0.218 and the “Final OD Reading 2” value was 0.2712. For the same compound, in test [2] (control of Ab 1:100), the “Average OD” value turned out to be 0.3534, the “Final OD Reading 1” value is listed as 0.3508 and the “Final OD Reading 2” value is 0.3561. Besides, in test [3], the “highest dilution of antibiotic showing normal growth (sub-MIC used in experiments)” value turned out to be 0.02 µg/mL and the “growth of staphylococci in the presence of sub-MIC of antibiotic” value is reported as “grow similar to control bacteria without antibiotic”.

With gentamicin, in test [4], the “HA-1A binding after exposure to the antibiotic” value is given as “not enhanced”.
